Reference: US9757355B2, “Oral dosage forms of cyclopropanecarboxylic acid {2-[(1S)-1-(3-ethoxy-4-methoxy-phenyl)-2-methanesulfonyl-ethyl]-3-oxo-2,3-dihydro-1H-isoindol-4-yl}-amide” (Celgene Corporation, priority 2011, dated 2017)
Values after ≈ are worked out from the molar mass of the structure shown.

Assays:
TNF-α = assay: In vivo LPS-induced TNF-α production assay; details: Rattus norvegicus, 1.5 h; p.o.; male CD rats, 0.05 mg/kg LPS, blood 90 minutes after LPS challenge; read-out: ED50, TNF-α levels in rat plasma
Procedure: Male CD rats procured from Charles River Laboratories at seven weeks of age are allowed to acclimate for one week prior to use. A lateral tail vein is cannulated percutaneously with a 22-gage over-the-needle catheter under brief isoflurane anesthesia. Rats are administered a PDE4 inhibitor of the invention either by intravenous injection via the tail vein catheter or oral gavage 15 to 180 min prior to injection of 0.05 mg/kg LPS (E. Coli 055:B5). Catheters are flushed with 2.5 mL/kg of normal injectable saline. Blood is collected via cardiac puncture 90 minutes after LPS challenge. Plasma is prepared using lithium heparin separation tubes and frozen at −80° C. until analyzed. TNF-α levels are determined using a rat specific TNF-α ELISA kit (Busywork). The ED50 values are calculated as the dose of the PDE4 inhibitor of the invention at which the TNF-α production is reduced to 50% of the control value.

Aqueous solubility = type: physicochemical; details: water (aqueous)
Procedure: Thus, there exists a need for alternative formulations of Compound A in order to increase the bioavailability of the drug upon oral administration. Provided herein are oral dosage forms addressing this need.
The above method results in a physically stable solid dispersion of Compound A having an aqueous solubility of about 2 μg/mL.

[1] = molecular target: Phosphodiesterase 4 enzyme; assay: Inhibition of PDE4; type: biochemical; details: PDE4 purified from U937 human monocytic cells; 1 μM cAMP, 45 min at 30° C.
Procedure: Phosphodiesterase 4 enzyme was purified from U937 human monocytic cells by gel filtration chromatography, and phosphodiesterase reactions were carried out as previously described. See, e.g., Muller et al., Bioorg. Med. Chem. Lett., 1998, 8(19): 2669-2674. Briefly, reactions were carried out in 96-well deep-well plates in 50 mM Tris HCl pH 7.5, 5 mM MgCl2, 1 μM cyclic adenosine monophosphate (cAMP), plus 10 nM [^3H]-cAMP for 45 min at 30° C. The reactions were terminated by boiling, treated with 1 mg/ml snake venom, and separated using AG-1X8 ion exchange resin (BioRad). Reactions consumed less than 15% of available substrate.

solubility (Aqueous solubility): ~2 µg/mL (≈ 4.23 µM) | IC50 [1]: 105 nM
SMILES: CCOc1cc([C@@H](CS(C)(=O)=O)N2Cc3cccc(NC(=O)C4CC4)c3C2=O)ccc1OC [Compound A, Cyclopropanecarboxylic acid {2-[(1S)-1-(3-ethoxy-4-methoxy-phenyl)-2-methanesulfonyl-ethyl]-3-oxo-2,3-dihydro-1H-isoindol-4-yl}-amide]
ED50 (TNF-α): ~7.8 µg/kg
